Biological target: T1, IRAK4 (Homo sapiens, UniProt Q9NWZ3)
T1 sequence (Q9NWZ3 1-460): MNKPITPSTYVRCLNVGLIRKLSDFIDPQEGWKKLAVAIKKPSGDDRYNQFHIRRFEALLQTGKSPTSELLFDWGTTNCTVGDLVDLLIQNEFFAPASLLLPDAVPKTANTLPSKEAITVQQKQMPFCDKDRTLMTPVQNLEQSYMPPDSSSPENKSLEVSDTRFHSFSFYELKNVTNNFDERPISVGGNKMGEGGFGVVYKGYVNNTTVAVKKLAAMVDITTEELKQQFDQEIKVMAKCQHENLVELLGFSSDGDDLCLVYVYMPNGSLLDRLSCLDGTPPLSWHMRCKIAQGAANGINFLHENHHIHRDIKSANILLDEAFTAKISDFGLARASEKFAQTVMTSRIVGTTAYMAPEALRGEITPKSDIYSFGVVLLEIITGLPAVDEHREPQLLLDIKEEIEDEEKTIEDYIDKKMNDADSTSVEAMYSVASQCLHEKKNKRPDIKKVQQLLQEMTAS
Assay: 2-hour 1 mM ATP IRAK4 Biochemical assay (as above, but with 100 pM IRAK4 and 1 mM ATP)
Details: IRAK4 MSD BIOCHEMICAL (1 mM ATP) IC50 (μM), 100 pM IRAK4, 2 hours
Experimental: The 2-hour 10 μM ATP Biochemical Assay employs a MesoScale Detection (MSD) format.
The activity is quenched with 11 μl of 70 mM EDTA, pH 8.
To detect the phosphorylated biotinylated peptide substrate, 30 μl of the quenched reaction mixture is added to equivalent wells of a 384 well streptavidin coated MesoScale plate (Meso Scale Discovery #L21SA-1). After a 1 hour incubation of the plate for 1 hour at room temperature with gentle mixing, the plate wells are washed 3 times with 50 mM Tris, pH 7.5, 150 mM NaCl, 0.02% Tween-20.
A 25 μl volume of 1:500 anti-P-Threonine Rabbit polyclonal Antibody plus 1:500 Goat-anti-Rabbit Sulfo Tag Antibody (Meso Scale Discovery R32AB-1) in 50 mM Tris, pH 7.5, 150 mM NaCl, 0.02% Tween-20 plus 2% BSA is then added to each well. After a 1-hour incubation of the plate for 1 hour at room temperature with gentle mixing, the plate wells are washed, 3 times with 50 mM Tris, pH 7.5, 150 mM NaCl, 0.02% Tween-20. A 40 μl volume of 2×MSD Read Buffer (Meso Scale Discovery R92TC-1) is added to each well, and the plate is read immediately in an MSD Plate Reader (Meso Scale Discovery).
The 2-hour 1 mM ATP IRAK4 Biochemical assay was performed as described above, but with 100 pM IRAK4 and 1 mM ATP.

Question: How did the IC50 turn out when `CC(C)Oc1c(NC(=O)c2cccc3ncnn23)cn2cc(C34COC(C)(C3)C4)nc2c1F` [Example 434, N-(8-fluoro-7-isopropoxy-2-(1-methyl-2-oxabicyclo[2.1.1]hexan-4-yl)imidazo[1,2-a]pyridin-6-yl)-[1,2,4]triazolo[1,5-a]pyridine-5-carboxamide] was run?
Answer: 0.004 µM

Question: Which IC50 does the source give for `CC(C)Oc1nc2nc(C34COC(C)(C3)C4)cn2cc1NC(=O)c1cccc(OC2CC2)n1` [Example 494, 6-cyclopropoxy-N-(7-isopropoxy-2-(1-methyl-2-oxabicyclo[2.1.1]hexan-4-yl)imidazo[1,2-a]pyrimidin-6-yl)picolinamide] here?
Answer: 0.006 µM

Question: Which IC50 does the source give for `CCOc1nc(NC(=O)c2cccc(C(F)F)n2)cn2cc(C34COC(C)(C3)C4)nc12` [Example 201, 6-(difluoromethyl)-N-(8-ethoxy-2-(1-methyl-2-oxabicyclo[2.1.1]hexan-4-yl)imidazo[1,2-a]pyrazin-6-yl)picolinamide] here?
Answer: 0.004 µM

Question: How did the IC50 turn out when `CC(C)Oc1c(NC(=O)c2ccnc3ccnn23)cn2cc(C34COC(C)(C3)C4)nc2c1F` [Example 433, N-(8-fluoro-7-isopropoxy-2-(1-methyl-2-oxabicyclo[2.1.1]hexan-4-yl)imidazo[1,2-a]pyridin-6-yl)pyrazolo[1,5-a]pyrimidine-7-carboxamide] was run?
Answer: 0.013 µM

Question: With `COc1ccccc1C(=O)Nc1cn2cc(C34CCC(C)(C3)OC4)nc2c(OC)n1` (stereo not drawn) [Example 465, 2-methoxy-N-(8-methoxy-2-(1-methyl-2-oxabicyclo[2.2.1]heptan-4-yl)imidazo[1,2-a]pyrazin-6-yl)benzamide 2,2,2-trifluoroacetate] as the compound, how does the IC50 read?
Answer: 0.037 µM

Question: How did the IC50 turn out when `CC12CCC(c3cn4cc(NC(=O)c5coc(C6CC6)n5)nc(OC5CCC5)c4n3)(CO1)C2` (stereo not drawn) [Example 341, N-(8-cyclobutoxy-2-(1-methyl-2-oxabicyclo[2.2.1]heptan-4-yl)imidazo[1,2-a]pyrazin-6-yl)-2-cyclopropyloxazole-4-carboxamide] was run?
Answer: 0.006 µM

Question: For `COc1ncccc1C(=O)Nc1cn2cc(C34COC(C)(C3)C4)nc2nc1OC(C)C` [Example 346, N-(7-isopropoxy-2-(1-methyl-2-oxabicyclo[2.1.1]hexan-4-yl)imidazo[1,2-a]pyrimidin-6-yl)-2-methoxynicotinamide], which IC50 is on record?
Answer: 0.001 µM

Question: With `COC(=O)C(C)(C)c1cn2cc(NC(=O)c3cccc(C(F)F)n3)c(OC(C)C)cc2n1` [Example 261, methyl 2-(6-(6-(difluoromethyl)picolinamido)-7-isopropoxyimidazo[1,2-a]pyridin-2-yl)-2-methylpropanoate] as the compound, how does the IC50 read?
Answer: 0.002 µM

Question: With `Cc1nc(C(=O)Nc2cn3cc(C45CCC(C)(C4)OC5)nc3c(OC3CCC3)n2)co1` (stereo not drawn) [Example 486, N-(8-cyclobutoxy-2-(1-methyl-2-oxabicyclo[2.2.1]heptan-4-yl)imidazo[1,2-a]pyrazin-6-yl)-2-methyloxazole-4-carboxamide 2,2,2-trifluoroacetate] as the compound, how does the IC50 read?
Answer: 0.016 µM

Question: Which IC50 does the source give for `CCC(C)Oc1c(NC(=O)c2cccnc2OC)cn2cc(C34COC(C)(C3)C4)nc2c1F` (single isomer, unassigned) [Example 328, N-(7-(sec-butoxy)-8-fluoro-2-(1-methyl-2-oxabicyclo[2.1.1]hexan-4-yl)imidazo[1,2-a]pyridin-6-yl)-2-methoxynicotinamide] here?
Answer: 0.004 µM

Question: How did the IC50 turn out when `CCOc1cc2nc(C3CN(CC(F)F)C3)cn2cc1NC(=O)c1cccc(C(F)F)n1` [Example 78, N-(2-(1-(2,2-difluoroethyl)azetidin-3-yl)-7-ethoxyimidazo[1,2-a]pyridin-6-yl)-6-(difluoromethyl)picolinamide] was run?
Answer: 0.001 µM

Question: With `CC(C)Oc1nc2nc(C3CCOCC3)cn2cc1NC(=O)c1cccc2c1OCC2(F)F` [Example 487, 3,3-difluoro-N-(7-isopropoxy-2-(tetrahydro-2H-pyran-4-yl)imidazo[1,2-a]pyrimidin-6-yl)-2,3-dihydrobenzofuran-7-carboxamide] as the compound, how does the IC50 read?
Answer: 0.001 µM

Question: Which IC50 does the source give for `CC(C)Oc1cc2nc(C3CC3)cn2cc1NC(=O)c1cccc(C(F)F)n1` [Example 526, N-(2-cyclopropyl-7-isopropoxyimidazo[1,2-a]pyridin-6-yl)-6-(difluoromethyl)picolinamide] here?
Answer: 0.001 µM

Question: For `CC(C)Oc1c(NC(=O)c2ccn(C(F)F)n2)cn2cc(C34COC(C)(C3)C4)nc2c1F` [Example 547, 1-(difluoromethyl)-N-(8-fluoro-7-isopropoxy-2-(1-methyl-2-oxabicyclo[2.1.1]hexan-4-yl)imidazo[1,2-a]pyridin-6-yl)-1H-pyrazole-3-carboxamide], which IC50 is on record?
Answer: 0.001 µM

Question: `COc1nc(NC(=O)c2cccc(C(C)C)n2)cn2cc(C3CCOCC3)nc12` [Example 456, 6-isopropyl-N-(8-methoxy-2-(tetrahydro-2H-pyran-4-yl)imidazo[1,2-a]pyrazin-6-yl)picolinamide] was tested. Which IC50 did it give?
Answer: 0.014 µM

Question: Which IC50 does the source give for `CC(C)Oc1nc2nc(C34CC(C3)C4)cn2cc1NC(=O)c1cccc(C(F)F)n1` [Example 573, N-(2-(bicyclo[1.1.1]pentan-1-yl)-7-isopropoxyimidazo[1,2-a]pyrimidin-6-yl)-6-(difluoromethyl)picolinamide 2,2,2-trifluoroacetate] here?
Answer: 0.003 µM

Question: How did the IC50 turn out when `Cc1cccc(C(=O)Nc2cn3cc(C45COC(C)(C4)C5)nc3c(OC(C)C)n2)c1F` [Example 478, 2-fluoro-N-(8-isopropoxy-2-(1-methyl-2-oxabicyclo[2.1.1]hexan-4-yl)imidazo[1,2-a]pyrazin-6-yl)-3-methylbenzamide 2,2,2-trifluoroacetate] was run?
Answer: 0.012 µM

Question: Which IC50 does the source give for `CCOc1cc2nc(CC3CCOC3)cn2cc1NC(=O)c1cccc(C(F)F)n1` (stereo not drawn) [Example 14, 6-(difluoromethyl)-N-(7-ethoxy-2-((tetrahydrofuran-3-yl)methyl)imidazo[1,2-a]pyridin-6-yl)picolinamide] here?
Answer: 0.001 µM

Question: Which IC50 does the source give for `COc1nc(NC(=O)c2cccc3c2OCC3)cn2cc(C34COC(C)(C3)C4)nc12` [Example 445, N-(8-methoxy-2-(1-methyl-2-oxabicyclo[2.1.1]hexan-4-yl)imidazo[1,2-a]pyrazin-6-yl)-2,3-dihydrobenzofuran-7-carboxamide 2,2,2-trifluoroacetate] here?
Answer: 0.012 µM

Question: Which IC50 does the source give for `COc1ncccc1C(=O)Nc1cn2cc(C34CCC(C)(C3)OC4)nc2c(F)c1OC(C)C` (stereo not drawn) [Example 435, N-(8-fluoro-7-isopropoxy-2-(1-methyl-2-oxabicyclo[2.2.1]heptan-4-yl)imidazo[1,2-a]pyridin-6-yl)-2-methoxynicotinamide 2,2,2-trifluoroacetate] here?
Answer: 0.012 µM

Question: For `CC1(C)CCC1Oc1cc2nc(C3CCOCC3)cn2cc1NC(=O)c1cccc(C(F)F)n1` (stereo not drawn) [Example 177, 6-(difluoromethyl)-N-(7-(2,2-dimethylcyclobutoxy)-2-(tetrahydro-2H-pyran-4-yl)imidazo[1,2-a]pyridin-6-yl)picolinamide], which IC50 is on record?
Answer: 0.001 µM

Question: Which IC50 does the source give for `CC(C)Oc1nc2nc(C34COC(C)(C3)C4)cn2cc1NC(=O)c1cccc(C2CCOC2)n1` (stereo not drawn) [Example 493, N-(7-isopropoxy-2-(1-methyl-2-oxabicyclo[2.1.1]hexan-4-yl)imidazo[1,2-a]pyrimidin-6-yl)-6-(tetrahydrofuran-3-yl)picolinamide] here?
Answer: 0.001 µM

Question: For `O=C(Nc1cn2cc(C3CCOCC3)nc2cn1)c1cccc2c1OCC2` [Example 275, N-(2-(tetrahydro-2H-pyran-4-yl)imidazo[1,2-a]pyrazin-6-yl)-2,3-dihydrobenzofuran-7-carboxamide], which IC50 is on record?
Answer: 0.038 µM

Question: Which IC50 does the source give for `COC(C)c1cc2nc(C3CCOCC3)cn2cc1NC(=O)c1cccc(C(F)F)n1` (stereo not drawn) [Example 313, 6-(difluoromethyl)-N-(7-(1-methoxyethyl)-2-(tetrahydro-2H-pyran-4-yl)imidazo[1,2-a]pyridin-6-yl)picolinamide] here?
Answer: 0.067 µM

Question: For `COc1nc(NC(=O)c2cccc(C(F)F)n2)cn2cc(C3C4CCOCC43)nc12` (stereo not drawn) [Example 556, N-(2-(3-oxabicyclo[4.1.0]heptan-7-yl)-8-methoxyimidazo[1,2-a]pyrazin-6-yl)-6-(difluoromethyl)picolinamide 2,2,2-trifluoroacetate], which IC50 is on record?
Answer: 0.005 µM

Question: `COc1nc(NC(=O)c2ccn(CC(C)C)n2)cn2cc(C3CCOCC3)nc12` [Example 464, 1-isobutyl-N-(8-methoxy-2-(tetrahydro-2H-pyran-4-yl)imidazo[1,2-a]pyrazin-6-yl)-1H-pyrazole-3-carboxamide] was tested. Which IC50 did it give?
Answer: 0.205 µM

Question: How did the IC50 turn out when `COc1ncccc1C(=O)Nc1cn2cc(C34COC(C)(C3)C4)nc2cc1OC(C)C(F)(F)F` (single isomer, unassigned) [Example 319, 2-methoxy-N-(2-(1-methyl-2-oxabicyclo[2.1.1]hexan-4-yl)-7-((1,1,1-trifluoropropan-2-yl)oxy)imidazo[1,2-a]pyridin-6-yl)nicotinamide] was run?
Answer: 0.001 µM

Reference: patent US20220089592A1, “IMIDAZO[1,2-A]PYRIDINYL DERIVATIVES AS IRAK4 INHIBITORS” (priority 2019, published 2022)
